Assays:
xenograft models = settings: most xenograft models tested; cited from earlier work
WT.c cell line = assay: Cell migration assay, response to HGF; assay type: cell-based, mouse; settings: HGF 40 ng/ml, 18 hours, WT.c cells
Excerpt: (§1) Primary epithelial cells, designated as K0.1, K0.2, K0.3 and K0.4, were isolated from PyMT.epiVEGF−/− tumors. Primary epithelial cells, designated as WT. 1, WT.2, WT.3, WT.4 and WT.5, were isolated from in PyMT.epiVEGF+/+ tumors. WT.c is epithelial cells from a cell line created from PyMT.VEGF+/+.loxP tumor. KO.c is epithelial cells from a cell line created from PyMT.VEGF+/+.loxP tumors wherein VEGF was knocked out by Adenovirus expressing Cre-recombinase (Adeno-Cre) infection in vitro. Epithelial-specific Cre-loxP recombination was confirmed through immunocytochemistry with anti-Cre recombinase antibody. VEGF expression level was not detectable in Ko.c cell lines by ELISA.
(§2) Migration assays were performed using BD Falcon™ FluoroBlok™ 24-Multiwell Insert System, 8 um pore size (BD Biosciences, Bedford, Mass.). The plates were coated with 5 ug/ml Fibronectin (Sigma) for 2 hours at 37° C. Cells in 300 μl assay medium (0.5% FBS, DMEM/F12) were added to the upper chamber. HGF 40 ng/ml in 750 ul assay medium was added to the lower chamber, and cells were incubated at 37° C. for 18 hours. Cells on the lower surface were fixed in MeOH and stained with YO-PRO-1 (Molecular Probes, Eugene, Oreg.). Images were acquired and analyzed using the ImageXpress Micro platform (MDS Analytical; Sunnyvale, Calif.). The Count Nuclei application in Metamorph was used to identify and count migrated cells.

[1] = system: primary epithelial cells from PyMT.epiVEGF+/+ tumors; assay: Cell migration assay, response to HGF; assay type: cell-based, mouse; settings: HGF 40 ng/ml, 18 hours, primary tumors from PyMT.epiVEGF+/+ mice
Excerpt: as §1, §2

[2] = system: primary epithelial cells from PyMT.epiVEGF−/− tumors; assay: Cell migration assay, response to HGF; assay type: cell-based, mouse; settings: HGF 40 ng/ml, 18 hours, primary tumors from PyMT.epiVEGF−/− mice
Excerpt: as §1, §2

KO.c cell line = assay: Cell migration assay, response to HGF; assay type: cell-based, mouse; settings: HGF 40 ng/ml, 18 hours, KO.c cells
Excerpt: as §1, §2

| Substance | tumor angiogenesis (xenograft models) | tumor growth (xenograft models) | fold increase in migration with HGF treatment (WT.c cell line) | average increase in migratory response to HGF [1] | average increase in migratory response to HGF [2] | fold increase in migration with HGF treatment (KO.c cell line) |
| --- | --- | --- | --- | --- | --- | --- |
| bevacizumab: humanized anti-VEGF monoclonal antibody | reduced | significantly inhibited |  |  |  |  |
| HGF: hepatocyte growth factor, added at 40 ng/ml to the lower chamber in the migration assay |  |  | 1.5 fold | 1.8 fold | 2.5 fold | 2.3 fold |

From patent publication US20100055099A1, “Diagnostics and Treatments for VEGF-Independent Tumors” (priority 2008, published 2010)
